According to US12390467B2, “Necroptosis inducers or autophagy inhibitors or a combination thereof” (The University of Toledo, priority 2018, dated 2025):

Key:
Format in all cases: cell-based
[1] = test system: normal human mammary epithelial cells (HMEC); assay: MTT cell viability assay, HMEC; conditions: Homo sapiens, HMEC; MTT, 72 h; Normal; read-out: IC50 ± SD, HMEC
Experimental: (§1) The following cancer and non-cancer cell lines were used in the initial cytotoxicity screening of the TPH104 compounds: triple negative breast cancer (TNBC): MDA-MB468, MDA-MB 231, and BT-20; non-TNBC: MCF-7 and ZR-75-1; ovarian: Ov2008; prostate: DU145; colon: HCT-116, S1, and LOVO; lung: H460; normal kidney: HEK-293; normal breast: HMEC; and normal colon: CRL-1459. All cells were cultured in Dulbecco's modified Eagle medium (DMEM), supplemented with 10% fetal bovine serum (FBS), and 1% penicillin/streptomycin (P/S). Cells were allowed to grow as adherent monolayers in T25 flasks in a humidified incubator with 5% CO2 at 37° C. for a period of 24 h, unless otherwise specified for certain experiments.
(§2) The MTT assay was used to determine the cytotoxicity of all of the compounds. Briefly, in a 96-well flat-bottom cell culture plate, the cells were seeded at a density between 3-5×10^3 cells/well (180 μl in each well) and incubated for 24 h (a hemocytometer was used for cell counting). The next day, the cells were incubated with different concentrations of the nine compounds (0, 0.1, 0.3, 1, 3, 10, 30, and 100 μM) for 72 h. After 72 h, 20 μl of 5 mg/ml of 3-(4,5-dimethylthiazol-2-yl)-2,5-diphenyltetrazolium bromide (MTT) was added to the plate and incubated with the cells for 3 h at 37° C. In this experiment, the living cells will reduce the soluble MTT dye to non-soluble purple formazan crystals. Following incubation, the media containing MTT removed via suction and 100 μL of 100% dimethyl sulfoxide (DMSO) was added to dissolve the formazan crystals. Subsequently, the plate was shaken for 2 minutes and the absorbance was measured at a wavelength of 570 nm using a SpectraMax iD3 Multi-Mode Microplate Reader (Molecular Devices, Sunnyvale, CA). The IC50 values of each compound were calculated and used to determine the selectivity ratio (IC50 in normal cells/IC50 in cancer cells) of each compound as previously described. Based on the results obtained from these experiments, the compound TPH104, which had the lowest IC50 value, was selected for further experiments.

[2] = test system: ZR-75-1 (non-TNBC cell line); assay: MTT cell viability assay, ZR-75-1; conditions: Homo sapiens, ZR-75-1, 72 h, read-out: IC50 ± SD, ZR-75-1
Experimental: as §1, §2

[3] = test system: MCF-7 (non-TNBC cell line); assay: MTT cell viability assay, MCF-7; conditions: Homo sapiens, MCF7, 72 h, read-out: IC50 ± SD, MCF-7
Experimental: as §1, §2

[4] = test system: MDA-MB231 (TNBC cell line); assay: MTT cell viability assay, MDA-MB231; conditions: Homo sapiens, MDA-MB-231, 72 h, read-out: IC50 ± SD, MDA-MB231
Experimental: as §1, §2

[5] = test system: TNBC cell lines; assay: Cytotoxicity screening (MTT), TNBC cell lines overall; conditions: classification of Table 1 cytotoxicity data
Text: To this end, several commercial databases were searched, and 17 similar molecules from the VitasM database were retrieved with considerable structural diversity in terms of the substitution on the aryl ring A attached to the thienopyrimidine scaffold and aryl ring B attached to hydrazino moiety. Further, the biological evaluation of the 17 molecules sheds light on the structural features deemed important for the selective cytotoxicity shown by this class of molecules. With this understanding, the 17 molecules were subjected to a screening protocol comprising of two TNBC, two non-TNBC, and one normal cell lines.
as §1, §2

[6] = target: T1, P-gp (ABCB1), DU145TXR prostate cancer cells (Homo sapiens, UniProt P08183); assay: Calcein AM assay for P-gp modulation; conditions: concentration dependent
T1 construct: endogenous in cells; host or cells: DU145TXR prostate cancer cells
Experimental: Ability of P-gp to efflux Calcein AM is used to identify the molecules which interfere with P-gp transporter activity. About 10000 cells of DU145TXR prostate cancer cells were seeded in each well in 96 well plates and allowed to grow until confluency for 4-5 days. Then media was replaced with phenol red free RPMI media and cells were treated with indicated concentrations of TPH104s and 1 μg/mL of Calcein AM. Fluorescence measured after 60 minutes with excitation at 485/20 nm and at emission 535/20 nm using the BioTek Cytation 5 imaging multi-mode reader (Bio-Tek, Winooski, VT). DMSO (0.5% v/v) was used as the vehicle, and 15 μM of Pgp inhibitor SMU 45 was used as a positive control. (n=6 in each trial).

[7] = target: T2, BCRP (ABCG2), MCF-7 M100 breast cancer cells (Homo sapiens, UniProt Q9UNQ0); assay: Hoechst 33342 assay for BCRP modulation; conditions: concentration dependent
T2 construct: endogenous in cells; host or cells: MCF-7 M100 breast cancer cells
Experimental: Ability of BCRP to efflux nuclear stain Hoechst 33342 was used to identify the molecules which interfere with BCRP transporter activity. About 14000 cells of MCF-7 M100 breast cancer cells were seeded in each well in 96 well plates and allowed to grow until confluency for 4-5 days. Then media was replaced with phenol red free RPMI media and cells were treated with indicated concentrations of TPH104s and 5 μg/mL of Hoechst 33342. Fluorescence measured after 60 minutes with excitation at 361/20 nm and at emission 497/20 nm using the BioTek Cytation 5 imaging multi-mode reader (Bio-Tek, Winooski, VT). DMSO (0.5% v/v) was used as the vehicle, and 0.5 μM of BCRP inhibitor, Ko143 was used as a positive control and 15 μM of P-gp modulator, verapamil was used as negative control.

[8] = test system: MDA-MB468 (TNBC cell line); assay: MTT cell viability assay, MDA-MB468; conditions: Homo sapiens, MDA-MB-468, 72 h, read-out: IC50 ± SD, MDA-MB468
Experimental: as §1, §2

T1 sequence (P08183 whole entry): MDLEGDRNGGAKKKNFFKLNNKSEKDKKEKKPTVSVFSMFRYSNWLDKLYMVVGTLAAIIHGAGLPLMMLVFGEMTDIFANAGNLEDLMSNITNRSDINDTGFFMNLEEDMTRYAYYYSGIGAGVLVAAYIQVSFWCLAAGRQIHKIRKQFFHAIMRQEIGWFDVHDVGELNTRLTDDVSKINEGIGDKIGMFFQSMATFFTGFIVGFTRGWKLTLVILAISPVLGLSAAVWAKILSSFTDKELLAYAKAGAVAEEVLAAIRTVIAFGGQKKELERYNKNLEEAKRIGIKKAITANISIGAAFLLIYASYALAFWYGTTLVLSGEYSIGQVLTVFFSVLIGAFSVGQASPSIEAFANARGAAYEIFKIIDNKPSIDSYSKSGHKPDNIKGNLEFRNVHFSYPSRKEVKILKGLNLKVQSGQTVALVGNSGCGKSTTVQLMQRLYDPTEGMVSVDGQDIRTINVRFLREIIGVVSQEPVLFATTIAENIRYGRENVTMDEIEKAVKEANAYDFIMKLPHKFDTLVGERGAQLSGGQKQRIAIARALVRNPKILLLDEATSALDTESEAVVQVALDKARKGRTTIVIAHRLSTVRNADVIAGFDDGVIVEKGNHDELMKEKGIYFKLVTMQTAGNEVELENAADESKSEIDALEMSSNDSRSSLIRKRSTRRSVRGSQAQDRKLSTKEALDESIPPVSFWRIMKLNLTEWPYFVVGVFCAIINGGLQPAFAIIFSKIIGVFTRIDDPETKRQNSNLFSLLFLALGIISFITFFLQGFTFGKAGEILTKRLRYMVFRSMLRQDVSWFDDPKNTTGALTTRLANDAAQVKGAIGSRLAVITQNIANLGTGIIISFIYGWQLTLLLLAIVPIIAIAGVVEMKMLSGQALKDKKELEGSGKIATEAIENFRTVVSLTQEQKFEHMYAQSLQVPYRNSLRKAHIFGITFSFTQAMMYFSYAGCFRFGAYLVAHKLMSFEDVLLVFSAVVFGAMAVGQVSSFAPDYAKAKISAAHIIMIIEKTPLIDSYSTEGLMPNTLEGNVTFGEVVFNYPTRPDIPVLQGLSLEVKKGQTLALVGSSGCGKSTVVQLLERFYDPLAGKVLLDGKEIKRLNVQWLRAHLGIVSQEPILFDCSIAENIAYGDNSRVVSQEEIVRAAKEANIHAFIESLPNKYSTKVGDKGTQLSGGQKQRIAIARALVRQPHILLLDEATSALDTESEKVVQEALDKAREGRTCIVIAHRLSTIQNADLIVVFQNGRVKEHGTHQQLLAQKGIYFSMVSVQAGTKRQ
T2 sequence (Q9UNQ0 whole entry): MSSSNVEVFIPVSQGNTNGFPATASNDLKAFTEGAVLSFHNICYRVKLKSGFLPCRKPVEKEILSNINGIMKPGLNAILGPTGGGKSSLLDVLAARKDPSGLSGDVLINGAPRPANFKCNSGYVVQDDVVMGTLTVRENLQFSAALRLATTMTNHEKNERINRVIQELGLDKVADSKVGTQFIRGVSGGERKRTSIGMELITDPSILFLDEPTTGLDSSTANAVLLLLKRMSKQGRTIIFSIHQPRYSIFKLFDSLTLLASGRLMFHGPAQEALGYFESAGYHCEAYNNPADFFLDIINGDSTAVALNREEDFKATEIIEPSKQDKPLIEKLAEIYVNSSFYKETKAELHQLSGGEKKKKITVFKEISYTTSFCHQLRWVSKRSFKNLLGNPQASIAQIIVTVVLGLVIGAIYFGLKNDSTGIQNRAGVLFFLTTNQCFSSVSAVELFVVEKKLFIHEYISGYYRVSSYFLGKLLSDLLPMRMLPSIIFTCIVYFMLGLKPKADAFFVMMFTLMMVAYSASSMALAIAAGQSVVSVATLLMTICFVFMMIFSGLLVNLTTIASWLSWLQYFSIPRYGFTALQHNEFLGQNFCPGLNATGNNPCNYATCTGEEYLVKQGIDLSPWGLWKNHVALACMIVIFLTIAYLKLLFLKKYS

- IC50 [3]: 2730 ± 1020 nM
- IC50 [4]: 440 ± 210 nM
- efflux function of ABCB1 [6]: blocking the efflux function
- efflux function of ABCG2 [7]: blocking the efflux function
- IC50 [8]: 290 ± 10 nM
Structure (SMILES): Cc1ccc(-c2csc3ncnc(N/N=C/c4ccc(Br)cc4O)c23)cc1 [TPH104m]
- IC50 [1]: > 100000 nM
- IC50 [2]: > 100000 nM
- potency compared to TPH104 [5]: comparable potency to that of TPH104
